These results are taken from patent US10647747B2, “Cyclosporin derivatives and uses thereof” (S&T Global Inc., priority 2010, dated 2020).

The test concerns HCV replicon in cell line ET (luc-ubi-neo/ET), Huh7 human hepatoma. In words: HCV subgenomic replicon assay, luciferase end point. The format is cell-based. For orientation: A replicon is a self-replicating genome or part of one, used to study replication in cells.
Setting [1] is: Table 16, HCV replicon luciferase, read-out: Antiviral activity EC50.
Where [2] appears, read: HCV subgenomic replicon, cell line ET (luc-ubi-neo/ET) Huh7, luciferase end point, read-out: Antiviral activity EC50.
[3] abbreviates: Hepatitis C virus, Huh-7, Table 14, HCV replicon luciferase, read-out: Antiviral activity EC50.
The mark [4] stands for this setting: Table 13, HCV replicon luciferase, read-out: Antiviral activity EC50.

Where two headings read alike, the source gives them in different places. *1 amine or outer side, *2 acyl side, *3 side chain or, on linkers, in order; H or OH if unused. Where a SMILES comes first, the peptide text is derived from it. [ ]: non-standard residue; d: D form. NMe(dihydroBmt) = CCCC[C@@H](C)[C@@H](O)[C@H](NC)C(=O)O; X11 = CN([C@@H](CC(C)(C)OCCO)C(=O)[*:2])[*:1]; X3 = CC=CCC(C)C(O)C(C(=O)[*:2])N(C)[*:1]; X9 = C=CCOC(C)(C)CC(C(=O)[*:2])N(C)[*:1]; X13 = CCN(CC)CCCSC(C(=O)[*:2])N(C)[*:1]; X7 = CN(C(SCCCN1CCOCC1)C(=O)[*:2])[*:1]; NMeI = CC[CH](C)[CH](NC)C(=O)O; NMeL = CN[CH](CC(C)C)C(=O)O; NMeV = CN[CH](C(=O)O)C(C)C; Abu = CC[CH](N)C(=O)O; Sar = CNCC(=O)O

A word on the EC50: it is the concentration needed to bring the measured effect to its halfway point. With `CC=CCC(C)C(O)C1C(=O)NC(CC)C(=O)N(C)C(CSCCCCNCC(C)(C)C)C(=O)N(C)C(CC(C)(C)O)C(=O)NC(C(C)C)C(=O)N(C)C(CC(C)C)C(=O)NC(C)C(=O)NC(C)C(=O)N(C)C(CC(C)C)C(=O)N(C)C(CC(C)C)C(=O)N(C)C(C(C)C)C(=O)N1C` (stereo not drawn), the EC50 under setting [1] was 40 nM.
Consider `CC=CCC(C)C(O)C1C(=O)NC(CC)C(=O)N(C)C(CSCCN2CCOCC2)C(=O)N(C)C(CC(C)(C)OC)C(=O)NC(C(C)C)C(=O)N(C)C(CC(C)C)C(=O)NC(C)C(=O)NC(C)C(=O)N(C)C(CC(C)C)C(=O)N(C)C(CC(C)C)C(=O)N(C)C(C(C)C)C(=O)N1C` (stereo not drawn), for which the EC50 under setting [2] amounted to 110 nM.
Regarding `C/C=C/C[C@@H](C)[C@@H](O)[C@H]1C(=O)N[C@@H](CC)C(=O)N(C)[C@H](CSCCCN(CC)CC)C(=O)N(C)[C@@H](CC(C)(C)O)C(=O)N[C@@H](C(C)C)C(=O)N(C)[C@@H](CC(C)C)C(=O)N[C@@H](C)C(=O)N[C@H](C)C(=O)N(C)[C@@H](CC(C)C)C(=O)N(C)[C@@H](CC(C)C)C(=O)N(C)[C@@H](C(C)C)C(=O)N1C` [listing 1 of 2 here], the 50% effective concentration (EC50) under setting [3] stood at 30 nM.
Take `C/C=C/C[C@@H](C)[C@@H](O)[C@H]1C(=O)N[C@@H](CC)C(=O)N(C)CC(=O)N(C)[C@@H](CC(C)(C)OCSC)C(=O)N[C@@H](C(C)C)C(=O)N(C)[C@@H](CC(C)C)C(=O)N[C@@H](C)C(=O)N[C@H](C)C(=O)N(C)[C@@H](CC(C)C)C(=O)N(C)[C@@H](CC(C)C)C(=O)N(C)[C@@H](C(C)C)C(=O)N1C` [[(γ-Methylthio)methoxy-N-MeLeu]-4-cyclospori]: under setting [4], the EC50 was determined as 400 nM.
Regarding `C/C=C/C[C@@H](C)[C@@H](O)[C@H]1C(=O)N[C@@H](CC)C(=O)N(C)[C@H](CSCCNC(C)C)C(=O)N(C)[C@@H](CC(C)(C)O)C(=O)N[C@@H](C(C)C)C(=O)N(C)[C@@H](CC(C)C)C(=O)N[C@@H](C)C(=O)N[C@H](C)C(=O)N(C)[C@@H](CC(C)C)C(=O)N(C)[C@@H](CC(C)C)C(=O)N(C)[C@@H](C(C)C)C(=O)N1C`, the concentration giving a half-maximal response (EC50) (Hepatitis C virus, Huh-7, HCV subgenomic replicon, cell line ET (luc-ubi-neo/ET) Huh7, luciferase end point, read-out: Antiviral activity EC50) is 190 nM.
On to `CC=CCC(C)C(O)C1C(=O)NC(CC)C(=O)N(C)C(CSCCCN2CCCCC2)C(=O)N(C)C(CC(C)(C)OC)C(=O)NC(C(C)C)C(=O)N(C)C(CC(C)C)C(=O)NC(C)C(=O)NC(C)C(=O)N(C)C(CC(C)C)C(=O)N(C)C(CC(C)C)C(=O)N(C)C(C(C)C)C(=O)N1C` (stereo not drawn), for which, under setting [2], the EC50 was found to be 60 nM.
Still for that read-out and setting: as for `CC=CCC(C)C(O)C1C(=O)NC(CC)C(=O)N(C)C(CSCCCN2CCOCC2)C(=O)N(C)C(CC(C)(C)OC)C(=O)NC(C(C)C)C(=O)N(C)C(CC(C)C)C(=O)NC(C)C(=O)NC(C)C(=O)N(C)C(CC(C)C)C(=O)N(C)C(CC(C)C)C(=O)N(C)C(C(C)C)C(=O)N1C` (stereo not drawn), the figure is 100 nM.
On to `C/C=C/C[C@@H](C)[C@@H](O)[C@H]1C(=O)N[C@@H](CC)C(=O)N(C)[C@H](CSCCN2CCCCC2)C(=O)N(C)[C@@H](CC(C)(C)O)C(=O)N[C@@H](C(C)C)C(=O)N(C)[C@@H](CC(C)C)C(=O)N[C@@H](C)C(=O)N[C@H](C)C(=O)N(C)[C@@H](CC(C)C)C(=O)N(C)[C@@H](CC(C)C)C(=O)N(C)[C@@H](C(C)C)C(=O)N1C`, for which the EC50 under setting [3] came out at 40 nM.
With `CC=CCC(C)C(O)C1C(=O)NC(CC)C(=O)N(C)C(CSCCN2CCCC2)C(=O)N(C)C(CC(C)(C)O)C(=O)NC(C(C)C)C(=O)N(C)C(CC(C)C)C(=O)NC(C)C(=O)NC(C)C(=O)N(C)C(CC(C)C)C(=O)N(C)C(CC(C)C)C(=O)N(C)C(C(C)C)C(=O)N1C` (stereo not drawn), the EC50 under setting [2] worked out at 110 nM.
`CC=CCC(C)C(O)C1C(=O)NC(CC)C(=O)N(C)C(CSCCN2CCN(C)CC2)C(=O)N(C)C(CC(C)(C)O)C(=O)NC(C(C)C)C(=O)N(C)C(CC(C)C)C(=O)NC(C)C(=O)NC(C)C(=O)N(C)C(CC(C)C)C(=O)N(C)C(CC(C)C)C(=O)N(C)C(C(C)C)C(=O)N1C` (stereo not drawn): the EC50 under setting [2] amounted to 90 nM.
Still for that read-out and setting: the figure for `CC=CCC(C)C(O)C1C(=O)NC(CC)C(=O)N(C)C(CSCCCN2CCCC2)C(=O)N(C)C(CC(C)(C)O)C(=O)NC(C(C)C)C(=O)N(C)C(CC(C)C)C(=O)NC(C)C(=O)NC(C)C(=O)N(C)C(CC(C)C)C(=O)N(C)C(CC(C)C)C(=O)N(C)C(C(C)C)C(=O)N1C` (stereo not drawn) is 100 nM; for `CC=CCC(C)C(O)C1C(=O)NC(CC)C(=O)N(C)C(CSCCN(C)C(C)C)C(=O)N(C)C(CC(C)(C)O)C(=O)NC(C(C)C)C(=O)N(C)C(CC(C)C)C(=O)NC(C)C(=O)NC(C)C(=O)N(C)C(CC(C)C)C(=O)N(C)C(CC(C)C)C(=O)N(C)C(C(C)C)C(=O)N1C` (stereo not drawn) it is 100 nM.
Consider `CC=CCC(C)C(O)C1C(=O)NC(CC)C(=O)N(C)C(CSCCCN2CCN(C(C)C)CC2)C(=O)N(C)C(CC(C)(C)O)C(=O)NC(C(C)C)C(=O)N(C)C(CC(C)C)C(=O)NC(C)C(=O)NC(C)C(=O)N(C)C(CC(C)C)C(=O)N(C)C(CC(C)C)C(=O)N(C)C(C(C)C)C(=O)N1C` (stereo not drawn), for which, under setting [1], the concentration for a half-maximal effect (EC50) amounted to 50 nM.
For `CC=CCC(C)C(O)C1C(=O)NC(CC)C(=O)N(C)C(SCCCN(CC)CC)C(=O)N(C)C(C(C)CC)C(=O)NC(C(C)C)C(=O)N(C)C(CC(C)C)C(=O)NC(C)C(=O)NC(C)C(=O)N(C)C(CC(C)C)C(=O)N(C)C(CC(C)C)C(=O)N(C)C(C(C)C)C(=O)N1C` [[(S)-3-(N,N-Diethylamino)propylthio-Sar]-3-[N-MeIle]-4-cyclosporin] (cyclo([X3][Abu][X13][NMeI]V[NMeL]AA[NMeL][NMeL][NMeV]); configuration not given here), the EC50 under setting [2] was determined as 80 nM.
With “(R)-2-(N-iso-Butyl-N-iso-propylamino)ethylthio-Sar]-3-cyclosporin”, the EC50 (Table 12, HCV replicon luciferase, read-out: Antiviral activity EC50) was 4650 nM.
With `C/C=C/C[C@@H](C)[C@@H](O)[C@H]1C(=O)N[C@@H](CC)C(=O)N(C)CC(=O)N(C)[C@@H]([C@@H](C)CC)C(=O)N[C@@H](C(C)C)C(=O)N(C)[C@@H](CC(C)C)C(=O)N[C@@H](C)C(=O)N[C@H](C)C(=O)N(C)[C@@H](CC(C)C)C(=O)N(C)[C@@H](CC(C)C)C(=O)N(C)[C@@H](C(C)C)C(=O)N1C` [[N-MeIle]-4-cyclosporin (SDZ-NIM-811), N-MeIle-4-Cyclosporin, reference compound], the concentration giving a half-maximal response (EC50) (Hepatitis C virus, Huh-7, read-out: Antiviral activity EC50, Table 12, HCV replicon luciferase) is 150 nM.
For the compound `C/C=C/C[C@@H](C)[C@@H](O)[C@H]1C(=O)N[C@@H](CC)C(=O)N(C)[C@H](CSCCN(C)C)C(=O)N(C)[C@@H](CC(C)C)C(=O)N[C@@H](C(C)C)C(=O)N(C)[C@@H](CC(C)C)C(=O)N[C@@H](C)C(=O)N[C@H](C)C(=O)N(C)[C@@H](CC(C)C)C(=O)N(C)[C@@H](CC(C)C)C(=O)N(C)[C@@H](C(C)C)C(=O)N1C` (single isomer, unassigned; isomer b) [[(S)-(2-(N,N-Dimethylamino)ethylthio)methyl-Sar]-3-cyclosporin (isomer B)], the EC50 under setting [2] is 170 nM.
Same read-out and setting: as for `C/C=C/C[C@@H](C)[C@@H](O)[C@H]1C(=O)N[C@@H](CC)C(=O)N(C)[C@H](CSCCCN(CC)CC)C(=O)N(C)[C@@H](CC(C)(C)O)C(=O)N[C@@H](C(C)C)C(=O)N(C)[C@@H](CC(C)C)C(=O)N[C@@H](C)C(=O)N[C@H](C)C(=O)N(C)[C@@H](CC(C)C)C(=O)N(C)[C@@H](CC(C)C)C(=O)N(C)[C@@H](C(C)C)C(=O)N1C` [listing 2 of 2 here], the figure is 80 nM.
Regarding `CCCC[C@@H](C)[C@@H](O)[C@H]1C(=O)N[C@@H](CC)C(=O)N(C)CC(=O)N(C)[C@@H](CC(C)(C)OCCO)C(=O)N[C@@H](C(C)C)C(=O)N(C)[C@@H](CC(C)C)C(=O)N[C@@H](C)C(=O)N[C@H](C)C(=O)N(C)[C@@H](CC(C)C)C(=O)N(C)[C@@H](CC(C)C)C(=O)N(C)[C@@H](C(C)C)C(=O)N1C` [[γ-(2-Hydroxyethoxy)-N-MeLeu]-4-dihydrocyclosporin] (cyclo(A[dA][NMeL][NMeL][NMeV][NMe(dihydroBmt)][Abu][Sar][X11]V[NMeL])), the EC50 under setting [4] is 430 nM.
Take `C/C=C/C[C@@H](C)[C@@H](O)[C@H]1C(=O)N[C@@H](CC)C(=O)N(C)[C@H](CSCCCN2CCN(CC(C)C)CC2)C(=O)N(C)[C@@H](CC(C)(C)O)C(=O)N[C@@H](C(C)C)C(=O)N(C)[C@@H](CC(C)C)C(=O)N[C@@H](C)C(=O)N[C@H](C)C(=O)N(C)[C@@H](CC(C)C)C(=O)N(C)[C@@H](CC(C)C)C(=O)N(C)[C@@H](C(C)C)C(=O)N1C`: under setting [1], the EC50 came out at 50 nM.
For the compound `CC=CCC(C)C(O)C1C(=O)NC(CC)C(=O)N(C)C(SCCCN(CC)CC)C(=O)N(C)C(C(C)C)C(=O)NC(C(C)C)C(=O)N(C)C(CC(C)C)C(=O)NC(C)C(=O)NC(C)C(=O)N(C)C(CC(C)C)C(=O)N(C)C(CC(C)C)C(=O)N(C)C(C(C)C)C(=O)N1C` [[(S)-3-(N,N-Diethylamino)propylthio-Sar]-3-[N-MeVal]-4-cyclosporin] (cyclo([X3][Abu][X13][NMeV]V[NMeL]AA[NMeL][NMeL][NMeV]); configuration not given here), under setting [2], the EC50 came out at 70 nM.
With `C=CCOC(C)(C)CC1C(=O)NC(C(C)C)C(=O)N(C)C(CC(C)C)C(=O)NC(C)C(=O)NC(C)C(=O)N(C)C(CC(C)C)C(=O)N(C)C(CC(C)C)C(=O)N(C)C(C(C)C)C(=O)N(C)C(C(O)C(C)CC=CC)C(=O)NC(CC)C(=O)N(C)C(SCCCN2CCOCC2)C(=O)N1C` [[(S)-3-(N-Morpholino)propylthio-Sar]-3-[(γ-allyloxy)-N-MeLeu]-4-cyclosporin] (cyclo([X3][Abu][X7][X9]V[NMeL]AA[NMeL][NMeL][NMeV]); configuration not given here), the EC50 under setting [4] was found to be 150 nM.
Same read-out and setting: as for `CC=CCC(C)C(O)C1C(=O)NC(CC)C(=O)N(C)C(SCCCN2CCOCC2)C(=O)N(C)C(CC(C)(C)O)C(=O)NC(C(C)C)C(=O)N(C)C(CC(C)C)C(=O)NC(C)C(=O)NC(C)C(=O)N(C)C(CC(C)C)C(=O)N(C)C(CC(C)C)C(=O)N(C)C(C(C)C)C(=O)N1C` [[(S)-3-(N-Morpholino)propylthio-Sar]-3-[(γ-hydroxy)-N-MeLeu]-4-cyclosporin], the figure is 50 nM.
On to `CC=CCC(C)C(O)C1C(=O)NC(CC)C(=O)N(C)C(CSCCCN(C)C)C(=O)N(C)C(CC(C)(C)OC)C(=O)NC(C(C)C)C(=O)N(C)C(CC(C)C)C(=O)NC(C)C(=O)NC(C)C(=O)N(C)C(CC(C)C)C(=O)N(C)C(CC(C)C)C(=O)N(C)C(C(C)C)C(=O)N1C` (stereo not drawn), for which the EC50 under setting [2] turned out to be 90 nM.
